Laboratory results as given in patent publication US11180494B2, “Substituted amino acids as integrin inhibitors” (Pliant Therapeutics, Inc., priority 2018, dated 2021).

These compounds were tested against human integrin αvβ6 (Homo sapiens (Human), UniProt P06756+P18564) (assay: Proximity-based integrin receptor binding assay (ALPHASCREEN) for inhibitor potency). Conditions: inhibition of binding of TGF-b1 LAP to human integrin αvβ6; values given in ranges.
Chain of human integrin αvβ6 (P06756 31-992): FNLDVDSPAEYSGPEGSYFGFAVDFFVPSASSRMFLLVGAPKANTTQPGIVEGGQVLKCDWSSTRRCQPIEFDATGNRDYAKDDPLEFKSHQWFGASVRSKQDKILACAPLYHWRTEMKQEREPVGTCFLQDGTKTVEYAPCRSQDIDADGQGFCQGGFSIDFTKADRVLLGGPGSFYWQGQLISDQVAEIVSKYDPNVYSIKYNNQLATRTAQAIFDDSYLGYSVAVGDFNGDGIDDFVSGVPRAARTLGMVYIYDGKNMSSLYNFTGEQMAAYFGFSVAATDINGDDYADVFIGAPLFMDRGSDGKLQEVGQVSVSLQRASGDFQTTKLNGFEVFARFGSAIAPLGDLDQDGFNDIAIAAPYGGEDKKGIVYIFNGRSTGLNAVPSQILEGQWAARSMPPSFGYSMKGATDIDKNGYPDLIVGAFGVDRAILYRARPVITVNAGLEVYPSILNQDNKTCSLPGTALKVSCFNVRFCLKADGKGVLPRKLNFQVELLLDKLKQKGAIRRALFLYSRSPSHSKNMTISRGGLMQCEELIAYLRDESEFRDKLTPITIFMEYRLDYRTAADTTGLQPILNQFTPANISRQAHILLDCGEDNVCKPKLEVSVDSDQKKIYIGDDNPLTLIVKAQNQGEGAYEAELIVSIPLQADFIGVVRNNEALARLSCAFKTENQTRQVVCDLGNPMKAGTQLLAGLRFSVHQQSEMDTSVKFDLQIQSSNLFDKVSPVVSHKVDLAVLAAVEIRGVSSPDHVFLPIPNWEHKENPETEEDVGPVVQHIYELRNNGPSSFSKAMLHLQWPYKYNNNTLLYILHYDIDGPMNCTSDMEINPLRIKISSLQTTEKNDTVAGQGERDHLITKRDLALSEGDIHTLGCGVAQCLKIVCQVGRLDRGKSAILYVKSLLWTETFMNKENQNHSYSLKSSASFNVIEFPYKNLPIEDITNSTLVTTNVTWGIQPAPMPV
Chain of human integrin αvβ6 (P18564 22-707): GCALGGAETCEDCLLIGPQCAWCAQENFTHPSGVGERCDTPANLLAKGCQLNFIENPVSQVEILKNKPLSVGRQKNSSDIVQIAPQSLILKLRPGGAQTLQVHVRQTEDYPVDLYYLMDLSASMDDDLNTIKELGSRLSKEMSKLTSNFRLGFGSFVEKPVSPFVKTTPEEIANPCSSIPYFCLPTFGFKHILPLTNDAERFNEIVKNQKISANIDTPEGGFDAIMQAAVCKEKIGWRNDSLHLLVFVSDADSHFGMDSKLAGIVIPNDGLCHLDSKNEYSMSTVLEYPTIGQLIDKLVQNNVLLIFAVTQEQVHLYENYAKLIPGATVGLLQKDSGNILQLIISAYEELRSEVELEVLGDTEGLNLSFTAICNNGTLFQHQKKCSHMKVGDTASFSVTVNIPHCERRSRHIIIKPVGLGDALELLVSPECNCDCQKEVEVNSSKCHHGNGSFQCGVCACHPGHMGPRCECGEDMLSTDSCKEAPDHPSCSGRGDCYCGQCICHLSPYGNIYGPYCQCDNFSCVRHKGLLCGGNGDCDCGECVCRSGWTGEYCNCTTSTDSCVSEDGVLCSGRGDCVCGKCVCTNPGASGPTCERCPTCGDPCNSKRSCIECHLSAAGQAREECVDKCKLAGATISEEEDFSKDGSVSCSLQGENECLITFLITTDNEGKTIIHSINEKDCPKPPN
Procedure: To gauge the potency of inhibitors of binding to human integrin αvβ6, inhibitor compounds and integrin were incubated together with TGF-b1 LAP and biotinylated anti-LAP antibody plus acceptor and donor beads, following the manufacture's recommendations. The donor beads were coated with streptavidin. […] All incubations occurred at room temperatures in 50 mM Tris-HCl, pH 7.5, 0.1% BSA supplemented with 1 mM each CaCl2 and MgCl2.
The order of reagent addition was as follows:
1. Alpha-v-beta-6 integrin, test inhibitor compound, LAP, biotinylated anti-LAP antibody and acceptor beads were all added together.
2. After 2 hours, donor beads were added. After another 30 minute incubation, samples were then read.
Integrin binding was evaluated by exciting donor beads at 680 nm, and measuring the fluorescent signal produced, between 520-620 nm, using a Biotek Instruments (Winooski, Vt., USA) SynergyNeo2 multimode plate reader. […] Data analysis for IC50 determinations was carried out by nonlinear four parameter logistic regression analysis using Dotmatics ELN Software (Core Informatics Inc., Branford, Conn.).
For `O=C(N[C@@H](CCO[C@H]1C[C@H](CCc2ccc3c(n2)NCCC3)C1)C(=O)O)c1cccc(Cl)c1F` [Compound 27, N-(3-chloro-2-fluorobenzoyl)-O-(trans-3-(2-(5,6,7,8-tetrahydro-1,8-naphthyridin-2-yl)ethyl)cyclobutyl)homoserine], the IC50 was < 50 nM.
In the case of `O=C(N[C@@H](CCO[C@H]1C[C@H](CCc2ccc3c(n2)NCCC3)C1)C(=O)O)c1cc(F)cc(F)c1` [Compound 28, N-(3,5-difluorobenzoyl)-O-(trans-3-(2-(5,6,7,8-tetrahydro-1,8-naphthyridin-2-yl)ethyl)cyclobutyl)homoserine], the IC50 is reported as < 50 nM.
With `O=C(N[C@@H](CCO[C@H]1C[C@H](CCc2ccc3c(n2)NCCC3)C1)C(=O)O)c1ccc(F)c(F)c1` [Compound 29, N-(3,4-difluorobenzoyl)-O-(trans-3-(2-(5,6,7,8-tetrahydro-1,8-naphthyridin-2-yl)ethyl)cyclobutyl)homoserine] the IC50 was < 50 nM.
For `O=C(N[C@@H](CCO[C@H]1C[C@H](CCc2ccc3c(n2)NCCC3)C1)C(=O)O)c1cccc(Cl)c1Cl` [Compound 30, N-(2,3-dichlorobenzoyl)-O-(trans-3-(2-(5,6,7,8-tetrahydro-1,8-naphthyridin-2-yl)ethyl)cyclobutyl)homoserine], the IC50 was < 50 nM.
`O=C(N[C@@H](CCO[C@H]1C[C@H](CCc2ccc3c(n2)NCCC3)C1)C(=O)O)c1c(F)cccc1Cl` [Compound 31, N-(2-chloro-6-fluorobenzoyl)-O-(trans-3-(2-(5,6,7,8-tetrahydro-1,8-naphthyridin-2-yl)ethyl)cyclobutyl)homoserine] was tested, and the IC50 was < 50 nM.
In the case of `O=C(N[C@@H](CCO[C@H]1C[C@H](CCc2ccc3c(n2)NCCC3)C1)C(=O)O)c1c(F)cccc1F` [Compound 32, N-(2,6-difluorobenzoyl)-O-(trans-3-(2-(5,6,7,8-tetrahydro-1,8-naphthyridin-2-yl)ethyl)cyclobutyl)homoserine], the IC50 is reported as < 50 nM.
With `O=C(N[C@@H](CCO[C@H]1C[C@H](CCc2ccc3c(n2)NCCC3)C1)C(=O)O)c1cc(F)ccc1F` [Compound 33, N-(2,5-difluorobenzoyl)-O-(trans-3-(2-(5,6,7,8-tetrahydro-1,8-naphthyridin-2-yl)ethyl)cyclobutyl)homoserine] the IC50 was < 50 nM.
`O=C(N[C@@H](CCO[C@H]1C[C@H](CCc2ccc3c(n2)NCCC3)C1)C(=O)O)c1ccc(Cl)c(Cl)c1` [Compound 34, N-(3,4-dichlorobenzoyl)-O-(trans-3-(2-(5,6,7,8-tetrahydro-1,8-naphthyridin-2-yl)ethyl)cyclobutyl)homoserine] gave an IC50 of 50 to 250 nM.
`O=C(N[C@@H](CCO[C@H]1C[C@H](CCc2ccc3c(n2)NCCC3)C1)C(=O)O)c1ccccn1` [Compound 35, N-picolinoyl-O-(trans-3-(2-(5,6,7,8-tetrahydro-1,8-naphthyridin-2-yl)ethyl)cyclobutyl)homoserine] gave an IC50 of 50 to 250 nM.
`O=C(N[C@@H](CCO[C@H]1C[C@H](CCc2ccc3c(n2)NCCC3)C1)C(=O)O)c1cccnc1` [Compound 36, N-nicotinoyl-O-(trans-3-(2-(5,6,7,8-tetrahydro-1,8-naphthyridin-2-yl)ethyl)cyclobutyl)homoserine] was tested, and the IC50 was < 50 nM.
For `O=C(NC(CCO[C@H]1C[C@H](CCc2ccc3c(n2)NCCC3)C1)C(=O)O)c1ccncc1` (stereo partly drawn) [Compound 37, N-isonicotinoyl-O-(trans-3-(2-(5,6,7,8-tetrahydro-1,8-naphthyridin-2-yl)ethyl)cyclobutyl)homoserine], the IC50 was < 50 nM.
For `Cn1ncc2c(C(=O)N[C@@H](CCO[C@H]3C[C@H](CCc4ccc5c(n4)NCCC5)C3)C(=O)O)cccc21` [Compound 38, N-(1-methyl-1H-indazole-4-carbonyl)-O-(trans-3-(2-(5,6,7,8-tetrahydro-1,8-naphthyridin-2-yl)ethyl)cyclobutyl)homoserine], the IC50 was 50 to 250 nM.
`Cn1cc2ccc(C(=O)N[C@@H](CCO[C@H]3C[C@H](CCc4ccc5c(n4)NCCC5)C3)C(=O)O)cc2n1` [Compound 39, N-(2-methyl-2H-indazole-6-carbonyl)-O-(trans-3-(2-(5,6,7,8-tetrahydro-1,8-naphthyridin-2-yl)ethyl)cyclobutyl)homoserine] was tested, and the IC50 was 50 to 250 nM.
For `Cn1cc2cc(C(=O)N[C@@H](CCO[C@H]3C[C@H](CCc4ccc5c(n4)NCCC5)C3)C(=O)O)ccc2n1` [Compound 40, N-(2-methyl-2H-indazole-5-carbonyl)-O-(trans-3-(2-(5,6,7,8-tetrahydro-1,8-naphthyridin-2-yl)ethyl)cyclobutyl)homoserine], the IC50 was 50 to 250 nM.
`Cn1ccc2c(C(=O)N[C@@H](CCO[C@H]3C[C@H](CCc4ccc5c(n4)NCCC5)C3)C(=O)O)ccnc21` [Compound 41, N-(1-methyl-1H-pyrrolo[2,3-b]pyridine-4-carbonyl)-O-(trans-3-(2-(5,6,7,8-tetrahydro-1,8-naphthyridin-2-yl)ethyl)cyclobutyl)homoserine] was tested, and the IC50 was < 50 nM.
`O=C(O)C(CCO[C@H]1C[C@H](CCc2ccc3c(n2)NCCC3)C1)NC(=O)[C@@H](CO)c1ccccc1` (stereo partly drawn) [Compound 42, N—((R)-3-hydroxy-2-phenylpropanoyl)-O-(trans-3-(2-(5,6,7,8-tetrahydro-1,8-naphthyridin-2-yl)ethyl)cyclobutyl)homoserine] gave an IC50 of 50 to 250 nM.
`O=C(O)C(CCO[C@H]1C[C@H](CCc2ccc3c(n2)NCCC3)C1)NC(=O)[C@@H](CO)c1ccccc1` (stereo partly drawn) [Compound 43, N—((R)-3-hydroxy-2-phenylpropanoyl)-O-(trans-3-(2-(5,6,7,8-tetrahydro-1,8-naphthyridin-2-yl)ethyl)cyclobutyl)homoserine] was tested, and the IC50 was 250 to 1000 nM.
With `CCC(CC)C(=O)N[C@@H](CCO[C@H]1C[C@H](CCc2ccc3c(n2)NCCC3)C1)C(=O)O` [Compound 44, N-(2-ethylbutanoyl)-O-(trans-3-(2-(5,6,7,8-tetrahydro-1,8-naphthyridin-2-yl)ethyl)cyclobutyl)homoserine] the IC50 was 50 to 250 nM.
For `CCC(CC)CC(=O)NC(CCO[C@H]1C[C@H](CCc2ccc3c(n2)NCCC3)C1)C(=O)O` (stereo partly drawn) [Compound 45, N-(3-ethylpentanoyl)-O-(trans-3-(2-(5,6,7,8-tetrahydro-1,8-naphthyridin-2-yl)ethyl)cyclobutyl)homoserine], the IC50 was 50 to 250 nM.
With `O=C(O)C(CCO[C@H]1C[C@H](CCc2ccc3c(n2)NCCC3)C1)NC(=O)[C@H](CO)c1ccccc1` (stereo partly drawn) [Compound 46, N—((S)-3-hydroxy-2-phenylpropanoyl)-O-(trans-3-(2-(5,6,7,8-tetrahydro-1,8-naphthyridin-2-yl)ethyl)cyclobutyl)homoserine] the IC50 was 250 to 1000 nM.
`O=C(O)C(CCO[C@H]1C[C@H](CCc2ccc3c(n2)NCCC3)C1)NC(=O)[C@H](CO)c1ccccc1` (stereo partly drawn) [Compound 47, N—((S)-3-hydroxy-2-phenylpropanoyl)-O-(trans-3-(2-(5,6,7,8-tetrahydro-1,8-naphthyridin-2-yl)ethyl)cyclobutyl)homoserine] gave an IC50 of 250 to 1000 nM.
In the case of `Cn1ccc2cc(C(=O)N[C@@H](CCO[C@H]3C[C@H](CCc4ccc5c(n4)NCCC5)C3)C(=O)O)cnc21` [Compound 48, N-(1-methyl-1H-pyrrolo[2,3-b]pyridine-5-carbonyl)-O-(trans-3-(2-(5,6,7,8-tetrahydro-1,8-naphthyridin-2-yl)ethyl)cyclobutyl)homoserine], the IC50 is reported as 250 to 1000 nM.
`O=C(NC(CCO[C@H]1C[C@H](CCc2ccc3c(n2)NCCC3)C1)C(=O)O)c1cccc(-c2cncs2)c1` (stereo partly drawn) [Compound 49, O-(trans-3-(2-(5,6,7,8-tetrahydro-1,8-naphthyridin-2-yl)ethyl)cyclobutyl)-N-(3-(thiazol-5-yl)benzoyl)homoserine] showed an IC50 of 50 to 250 nM.
For `O=C(N[C@@H](CCO[C@H]1C[C@H](CCc2ccc3c(n2)NCCC3)C1)C(=O)O)c1cccc(CO)c1` [Compound 50, N-(3-(hydroxymethyl)benzoyl)-O-(trans-3-(2-(5,6,7,8-tetrahydro-1,8-naphthyridin-2-yl)ethyl)cyclobutyl)homoserine], the IC50 was < 50 nM.
For `O=C(N[C@@H](CCO[C@H]1C[C@H](CCc2ccc3c(n2)NCCC3)C1)C(=O)O)c1cccc2ncccc12` [Compound 51, N-(quinoline-5-carbonyl)-O-(trans-3-(2-(5,6,7,8-tetrahydro-1,8-naphthyridin-2-yl)ethyl)cyclobutyl)homoserine], the IC50 was < 50 nM.
With `O=C(N[C@@H](CCO[C@H]1C[C@H](CCc2ccc3c(n2)NCCC3)C1)C(=O)O)c1ccccc1C1CC1` [Compound 52, N-(2-cyclopropylbenzoyl)-O-(trans-3-(2-(5,6,7,8-tetrahydro-1,8-naphthyridin-2-yl)ethyl)cyclobutyl)homoserine] the IC50 was < 50 nM.
`O=C(N[C@@H](CCO[C@H]1C[C@H](CCc2ccc3c(n2)NCCC3)C1)C(=O)O)c1ccc2cccnc2c1` [Compound 53, N-(quinoline-7-carbonyl)-O-(trans-3-(2-(5,6,7,8-tetrahydro-1,8-naphthyridin-2-yl)ethyl)cyclobutyl)homoserine] was tested, and the IC50 was 50 to 250 nM.
Compound `O=C(N[C@@H](CCO[C@H]1C[C@H](CCc2ccc3c(n2)NCCC3)C1)C(=O)O)c1ccc2ncccc2c1` [Compound 54, N-(quinoline-6-carbonyl)-O-(trans-3-(2-(5,6,7,8-tetrahydro-1,8-naphthyridin-2-yl)ethyl)cyclobutyl)homoserine] has an IC50 of 50 to 250 nM.
`O=C(N[C@@H](CCO[C@H]1C[C@H](CCc2ccc3c(n2)NCCC3)C1)C(=O)O)c1cccc2cccnc12` [Compound 55, N-(quinoline-8-carbonyl)-O-(trans-3-(2-(5,6,7,8-tetrahydro-1,8-naphthyridin-2-yl)ethyl)cyclobutyl)homoserine] was tested, and the IC50 was 250 to 1000 nM.
